A melting point compilation (Tetko et al.)

First: Cc1nc(-c2ccccc2N)no1
Second: Cc1noc(-c2cccnc2Cl)n1
The melting point of the first is higher: 77 to 79 °C for the first, 65 to 67 °C for the second.

First: Cc1c(C(=O)O)nnn1-c1ccc2c(c1)OCCO2
Second: O=C(O)CCS(=O)(=O)c1ccc2c(c1)OCCCO2
The melting point of the first is higher: 189 to 191 °C for the first, 109 to 111 °C for the second.

First: Nc1cc(-c2cccc(Br)c2)ncn1
Second: Cc1onc(-c2cccc(Br)c2)c1C(=O)O
The melting point of the first is higher: 229 to 231 °C for the first, 169 to 171 °C for the second.

First: Nc1cc(Br)ccc1[N+](=O)[O-]
Second: Nc1cc(Br)ccc1I
The melting point of the first is higher: 143 to 145 °C for the first, 49 to 51 °C for the second.

Compared with ClCc1noc(C2(c3ccccc3)CCOCC2)n1, COc1ccccc1-c1cc(C(=O)O)c2c(C)noc2n1 is higher in melting point: 74 to 76 °C for the first, 229 to 231 °C for the second.

Compared with Cc1nc2nc(S)nn2c(C)c1CC(=O)O, CCOC(=O)c1c(C)oc2nc(CCl)nc(N)c12 is lower in melting point: 226 to 228 °C for the first, 191 to 195 °C for the second.

Compared with Cc1ccc(C(=O)Nc2cccc(C(F)(F)F)c2)cc1N, CC(=CC(=O)O)c1cccc(C(F)(F)F)c1 is higher in melting point: 109 to 111 °C for the first, 135 to 137 °C for the second.

CC(C)(C)OC(=O)N1CCCC(C(=O)O)C1 (stereo not drawn) and O=C(O)C1CCC(NC(=O)C2CCCC2)CC1 (stereo not drawn) cannot be ordered by melting point: 160 to 162 °C for the first, 161 to 163 °C for the second.

First: Cc1ccc(NS(=O)(=O)c2cccc(C(=O)O)c2)cc1
Second: CC(C)S(=O)(=O)Nc1ccc(C(=O)O)cc1
The melting point of the first is higher: 203 to 205 °C for the first, 179 to 181 °C for the second.

First: CN(C1CCCCC1)S(=O)(=O)c1ccc(S)nc1
Second: O=C(O)c1ccnc(C2CCCC2)n1
The melting point of the first is higher: 175 to 177 °C for the first, 129 to 131 °C for the second.

First: CN(C)C(=O)COc1cccc(C(=O)O)c1
Second: COc1cccc(CC(NC(C)=O)C(=O)O)c1 (stereo not drawn)
The melting point of the first is higher: 193 to 195 °C for the first, 148 to 150 °C for the second.

Compared with N#Cc1ccc(S(=O)(=O)Cl)c(C(F)(F)F)c1, O=C(O)c1ncccc1C(F)(F)F is higher in melting point: 70 to 72 °C for the first, 107 to 109 °C for the second.

First: CC(O)Cc1cc(F)ccc1Br (stereo not drawn)
Second: CC(O)c1cnc(-c2ccc(Br)cc2)s1 (stereo not drawn)
The melting point of the first is lower: 56 to 58 °C for the first, 77 to 79 °C for the second.

Compared with O=C(O)c1cccc(Nc2ccccc2)c1, O=C(O)C(Oc1cccc(F)c1)c1ccccc1 (stereo not drawn) is lower in melting point: 129 to 131 °C for the first, 108 to 110 °C for the second.

First: Cn1c(=O)n(C)c2cc(C(=O)O)c(Br)cc21
Second: COCCCN1C(=O)c2ccc(C(=O)O)cc2C1=O
The melting point of the first is higher: 289 to 291 °C for the first, 147 to 149 °C for the second.

Compared with NNC(=O)CC1CCCCC1, Nc1sc2c(c1C(=O)NC1CC1)CCC2 is higher in melting point: 119 to 121 °C for the first, 170 to 172 °C for the second.

Compared with Cc1cc(C(=O)CCl)c(C)n1-c1ccc(OC(F)F)cc1, CCOc1cc(Cl)ccc1C(=O)O is higher in melting point: 83 to 87 °C for the first, 119 to 121 °C for the second.

First: CS(=O)(=O)Nc1ccccc1F
Second: O=C(CCl)NCc1ccccc1F
The melting point of the first is lower: 75 to 77 °C for the first, 79 to 81 °C for the second.

First: O=C(O)c1n[nH]c2c1CCCC2
Second: O=C(O)c1n[nH]c2ccc(I)cc12
The melting point of the first is lower: 249 to 251 °C for the first, 285 to 287 °C for the second.

First: Brc1ccccc1-c1nc2cccnc2[nH]1
Second: Clc1nc(-c2ccccn2)nc2sc(-c3ccccc3)cc12
The melting point of the first is higher: 196 to 198 °C for the first, 186 to 188 °C for the second.

First: CC(=O)Nc1cccc(I)c1
Second: CC(=O)Nc1cccc(C(=O)O)n1
The melting point of the first is lower: 123 to 125 °C for the first, 226 to 228 °C for the second.

Compared with CC(C)(C)OC(=O)NCCOc1cccc(N)c1, NC(=O)CCOc1ccc(N)cc1 is higher in melting point: 65 to 67 °C for the first, 110 to 112 °C for the second.

Compared with Cn1c(Cl)nnc1-c1ccc(Cl)cc1Cl, Nc1cc(=O)[nH]c(=O)n1Cc1ccc(Cl)cc1 is higher in melting point: 161 to 163 °C for the first, 279 to 281 °C for the second.

First: NCCNC(=O)c1ccccc1O
Second: CC(C)OCc1ccccc1CNC(=O)CCl
The melting point of the first is lower: 38 to 40 °C for the first, 40 to 42 °C for the second.

First: O=Cc1cc(O)c(O)c(Cl)c1
Second: O=C(O)c1ccc2nc(Cl)ccc2c1
The melting point of the first is higher: 234 to 236 °C for the first, 228 to 230 °C for the second.

First: O=C1CC2(CCOC2)CN1 (stereo not drawn)
Second: Cc1cc(C(C)(C)C)cc(C)c1S(=O)(=O)N1CCNCC1
The melting point of the first is lower: 63 to 65 °C for the first, 124 to 126 °C for the second.

Compared with COCCC(NC(C)=O)C(=O)O (stereo not drawn), O=C(CCl)NCc1ccc(C(=O)O)cc1 is higher in melting point: 152 to 154 °C for the first, 193 to 195 °C for the second.

Compared with CC(C)CC(N)C(=O)Nc1nccs1 (stereo not drawn), COC(=O)c1ccc(-c2noc(CC(C)(C)C)n2)cc1 is higher in melting point: 99 to 101 °C for the first, 114 to 116 °C for the second.

Compared with CS(=O)(=O)NCCCN, C#CCNS(C)(=O)=O is lower in melting point: 61 to 63 °C for the first, 56 to 58 °C for the second.

First: O=C(O)CC(NC(=O)c1ccccc1)c1ccccc1 (stereo not drawn)
Second: OCc1ccn(-c2ccccc2)n1
The melting point of the first is higher: 197 to 199 °C for the first, 49 to 51 °C for the second.

First: O=C(O)CN1C(=O)CSc2ccccc21
Second: O=C(O)c1[nH]c2ccccc2c1Cl
The melting point of the first is lower: 151 to 153 °C for the first, 179 to 181 °C for the second.

Compared with Nc1nc(Cc2ccc(Br)cc2)cs1, Nc1nonc1-c1ccccn1 is lower in melting point: 146 to 148 °C for the first, 124 to 126 °C for the second.

First: O=C(O)C1CC1c1cccc(C(F)(F)F)c1 (stereo not drawn)
Second: O=C(O)c1ccc(SC2CCOC2=O)cc1 (stereo not drawn)
The melting point of the first is lower: 84 to 86 °C for the first, 169 to 171 °C for the second.

First: Cc1cc(C(=O)N2CCCCC2C)ccc1N (stereo not drawn)
Second: COc1ccc([N+](=O)[O-])cc1CN
The melting point of the first is higher: 123 to 125 °C for the first, 101 to 103 °C for the second.

Compared with NS(=O)(=O)c1cccc2c1OCCO2, c1ccc2c(c1)nc1n2CCN1 is higher in melting point: 173 to 175 °C for the first, 194 to 206 °C for the second.

First: CS(=O)(=O)C1CSCCN1 (stereo not drawn)
Second: O=C(O)CN1CCC(CO)CC1
The melting point of the first is lower: 115 to 117 °C for the first, 202 to 204 °C for the second.

Work on Clc1nc(-c2cccnc2)nc2sc3c(c12)CCC3 yielded a melting point of 145 to 147 °C.
